The target of experiment [1] is T1, Cloned human M1 receptor (CHRM1) stably expressed in HEK293 cells (Homo sapiens, UniProt P11229).
T1 construct: expressed in transfected cells; host or cells: HEK293
T1 sequence (P11229 1-460): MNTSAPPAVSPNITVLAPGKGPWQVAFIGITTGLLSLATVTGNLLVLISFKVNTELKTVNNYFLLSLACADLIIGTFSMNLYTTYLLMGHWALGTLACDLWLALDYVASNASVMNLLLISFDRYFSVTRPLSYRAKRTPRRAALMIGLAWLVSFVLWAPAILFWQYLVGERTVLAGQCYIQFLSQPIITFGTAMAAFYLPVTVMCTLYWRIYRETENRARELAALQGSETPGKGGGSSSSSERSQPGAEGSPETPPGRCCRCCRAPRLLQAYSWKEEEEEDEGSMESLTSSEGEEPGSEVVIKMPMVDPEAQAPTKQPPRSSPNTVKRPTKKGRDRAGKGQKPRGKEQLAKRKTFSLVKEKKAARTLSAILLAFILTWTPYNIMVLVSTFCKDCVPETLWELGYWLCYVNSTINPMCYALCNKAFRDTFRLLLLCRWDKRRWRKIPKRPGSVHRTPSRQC
Briefly: CHRM1 Ca++ Flux Assay (agonist mode, FDSS 7000EX). It is filed as cell-based. The note with it: for Emax: HEK293, Percent Activity, read-out: M1 FDSS PA; for EC50: geometric mean if tested more than once. An outline of the steps: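 Compounds tested as agonists at 11 concentrations in triplicate, with calcium traces captured over 3 minutes. Cells were HEK293 with stable human CHRM1 expression, plated overnight at 25K/well and loaded with calcium dye. Responses normalized to carbachol EC100 and fitted by four-parameter nonlinear regression.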

For experiment [2], the target named is T2, human cloned CHRM2 receptor (M2_CHO cells) (Homo sapiens, UniProt P08172).
T2 construct: expressed in transfected cells; host or cells: CHO-K1
T2 sequence (P08172 1-466): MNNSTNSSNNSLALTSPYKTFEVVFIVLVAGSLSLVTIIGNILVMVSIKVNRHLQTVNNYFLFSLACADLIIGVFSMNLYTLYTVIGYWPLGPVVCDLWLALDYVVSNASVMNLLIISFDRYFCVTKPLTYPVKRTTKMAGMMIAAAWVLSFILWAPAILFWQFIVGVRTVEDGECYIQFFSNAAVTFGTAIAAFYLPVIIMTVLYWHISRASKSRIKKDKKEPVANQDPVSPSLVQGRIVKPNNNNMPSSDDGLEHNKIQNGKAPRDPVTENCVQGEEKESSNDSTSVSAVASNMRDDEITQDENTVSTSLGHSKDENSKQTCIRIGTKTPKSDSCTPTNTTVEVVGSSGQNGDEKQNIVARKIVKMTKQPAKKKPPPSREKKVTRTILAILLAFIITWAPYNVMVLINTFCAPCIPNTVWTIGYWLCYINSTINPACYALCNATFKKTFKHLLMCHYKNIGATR
The experiment in a line: CHRM2 Ca++ Flux Assay (agonist mode, FDSS 7000EX). It is filed as cell-based. To be noted: for Emax: Percent Activity measured to EC100 of Carbachol, read-out: M2 FDSS PA; for EC50: agonist mode, geometric mean if tested more than once, read-out: M2 FDSS EC50. Put shortly:
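Agonist-mode Ca++ flux in CHO-K1 cells stably expressing human CHRM2, dye-loaded, then held 60 min at room temperature in buffer with 20 μM ATP before compound addition; traces read over 3 minutes. Four-parameter fit of triplicate wells; percent activity relative to Carbachol EC100.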

A word on the EC50: it is the concentration giving half of the maximal effect. With `CC(C)(O)COc1ccccc1C1CCN([C@@H]2CCC3(C2)CN(c2nncs2)C3)CC1` [Example 3G, (R)-1-(2-(1-(2-(1,3,4-thiadiazol-2-yl)-2-azaspiro[3.4]octan-6-yl)piperidin-4-yl)phenoxy)-2-methylpropan-2-ol], in experiment [1], the Emax turned out to be 66% and the EC50 stood at 135 nM. Besides, in experiment [2], the Emax was found to be 20% and the EC50 stood at 304 nM.
For the molecule `O=C(N1CC2(CC[C@@H](N3CCC(c4ccccc4C4CCOCC4)CC3)C2)C1)C1(F)CC1` [Example 6E, (R)-(1-fluorocyclopropyl)(6-(4-(2-(tetrahydro-2H-pyran-4-yl)phenyl)piperidin-1-yl)-2-azaspiro[3.4]octan-2-yl)methanone], in experiment [1], the Emax was 67% and the EC50 is 120 nM. The Emax in experiment [2] was 0%.
For the molecule `CC(C)(O)CCOc1ccccc1C1CCN([C@@H]2CCC3(C2)CN(c2ncns2)C3)CC1` [Example 3L, (R)-4-(2-(1-(2-(1,2,4-thiadiazol-5-yl)-2-azaspiro[3.4]octan-6-yl)piperidin-4-yl)phenoxy)-2-methylbutan-2-ol], in experiment [1], the Emax was determined as 67% and the EC50 was determined as 62 nM. For the same molecule, the Emax in experiment [2] is 0%.
Take `c1ccc(C2CCN([C@@H]3CCC4(C3)CN(c3nnco3)C4)CC2)c(OC2COC2)c1` [Example 1D, (R)-2-(6-(4-(2-(oxetan-3-yloxy)phenyl)piperidin-1-yl)-2-azaspiro[3.4]octan-2-yl)-1,3,4-oxadiazole]: in experiment [1], the Emax turned out to be 89% and a half-maximal effect (EC50) was put at 19 nM. Besides, in experiment [2], the Emax amounted to 40% and the EC50 came to 35 nM.
Take `COc1ccccc1C1CCN([C@@H]2CCC3(C2)CN(c2nc(C)ns2)C3)CC1` [Example 3M, (R)-5-(6-(4-(2-methoxyphenyl)piperidin-1-yl)-2-azaspiro[3.4]octan-2-yl)-3-methyl-1,2,4-thiadiazole]: in experiment [1], the Emax turned out to be 0% and the EC50 is more than 25000 nM. For the same molecule, the Emax in experiment [2] stood at 0%.
`COCCOc1ccccc1C1CCN([C@@H]2CCC3(C2)CN(c2cnc(C)cn2)C3)CC1` [Example 5Y, (R)-6-(4-(2-(2-methoxyethoxy)phenyl)piperidin-1-yl)-2-(5-methylpyrazin-2-yl)-2-azaspiro[3.4]octane]: in experiment [1], the Emax came out at 0% and the EC50 was more than 25000 nM. Also, in experiment [2], the Emax came to 0% and the EC50 was less than 26000 nM.
For the molecule `c1ccc(C2CCN([C@@H]3CCC4(C3)CN(c3nnco3)C4)CC2)c(OC2CCOCC2)c1` [Example 2F, (R)-2-(6-(4-(2-((tetrahydro-2H-pyran-4-yl)oxy)phenyl)piperidin-1-yl)-2-azaspiro[3.4]octan-2-yl)-1,3,4-oxadiazole], the Emax in experiment [1] worked out at 112%; in experiment [2], 22%. Further, the EC50 is 277 nM in experiment [1] and 64 nM in experiment [2].
For the molecule `O=C(N1CC2(CC[C@H](N3CCC(c4ccccc4C4CCOCC4)CC3)C2)C1)C1(F)CC1` (single isomer, unassigned) [Example 9M], in experiment [1], the Emax amounted to 0% and a half-maximal effect (EC50) was put at 6440 nM. The Emax in experiment [2] was determined as 0%.
As to `O=C(C1COC1)N1CC2(CC[C@@H](N3CCC(c4ccccc4OCCOC(F)(F)F)CC3)C2)C1` [Example 7DD, (R)-oxetan-3-yl(6-(4-(2-(2-(trifluoromethoxy)ethoxy)phenyl)piperidin-1-yl)-2-azaspiro[3.4]octan-2-yl)methanone], the Emax amounted to 86% in experiment [1] and 0% in experiment [2]. Moreover, the EC50 in experiment [1] is 116 nM.
With `O=C(C1COC1)N1CC2(CC[C@@H](N3CCC(c4ccccc4OCC4(C(F)(F)F)CC4)CC3)C2)C1` [Example 7II, (R)-oxetan-3-yl(6-(4-(2-((1-(trifluoromethyl)cyclopropyl)methoxy)phenyl)piperidin-1-yl)-2-azaspiro[3.4]octan-2-yl)methanone], in experiment [1], the Emax was found to be 89% and the response was half-maximal at 103 nM (EC50). In experiment [2], the Emax turned out to be 12% and the EC50 stood at 6880 nM.
The corresponding values for `Fc1ccc(C2CCOC2)c(C2CCN([C@@H]3CCC4(C3)CN(c3nnco3)C4)CC2)c1` (mixture of isomers) [Example 2J, 2-((6R)-6-(4-(5-fluoro-2-(tetrahydrofuran-3-yl)phenyl)piperidin-1-yl)-2-azaspiro[3.4]octan-2-yl)-1,3,4-oxadiazole] are 97%, 46 nM, 37% and 36 nM.
In the case of `CC(C)(O)CCOc1ccccc1C1CCN([C@@H]2CCC3(C2)CN(c2nnco2)C3)CC1` [Example 1F], the Emax in experiment [1] worked out at 79%; in experiment [2] it was 0%. Besides, the response in experiment [1] was half-maximal at 31 nM (EC50).
The corresponding values for `c1ccc(C2CCN([C@H]3CCC4(C3)CN(c3nnco3)C4)CC2)c(C2CCOCC2)c1` (single isomer, unassigned) [Example 10T] are 21%, 0% and 3920 nM.
The corresponding values for `O=C(C1COC1)N1CC2(CC[C@@H](N3CCC(c4ccccc4OC4CCCC4)CC3)C2)C1` [Example 7G, (R)-(6-(4-(2-(cyclopentyloxy)phenyl)piperidin-1-yl)-2-azaspiro[3.4]octan-2-yl)(oxetan-3-yl)methanone] are 65%, 0% and 37 nM.
Regarding `COCCOc1ccccc1C1CCN([C@@H]2CCC3(C2)CN(c2nncs2)C3)CC1` [Example 3F, (R)-2-(6-(4-(2-(2-methoxyethoxy)phenyl)piperidin-1-yl)-2-azaspiro[3.4]octan-2-yl)-1,3,4-thiadiazole], the Emax in experiment [1] is 68%; in experiment [2] it was 0%. In experiment [1], the EC50 turned out to be 40 nM.
Regarding `c1ccc(C2CCN([C@@H]3CCC4(C3)CN(c3nnco3)C4)CC2)c(OC[C@@H]2COCCO2)c1` [Example 1E, 2-((R)-6-(4-(2-(((S)-1,4-dioxan-2-yl)methoxy)phenyl)piperidin-1-yl)-2-azaspiro[3.4]octan-2-yl)-1,3,4-oxadiazole], in experiment [1], the Emax amounted to 85% and the concentration for a half-maximal effect (EC50) is 57 nM. For the same molecule, in experiment [2], the Emax came to 14% and the EC50 is 21 nM.
On to `O=C(C1COC1)N1CC2(CC[C@@H](N3CCC(c4ccccc4OCCC4COC4)CC3)C2)C1` [Example 7KK, (R)-oxetan-3-yl(6-(4-(2-(2-(oxetan-3-yl)ethoxy)phenyl)piperidin-1-yl)-2-azaspiro[3.4]octan-2-yl)methanone], for which, in experiment [1], the Emax is 80% and it took 11 nM to reach a half-maximal effect (EC50). Also, in experiment [2], the Emax came to 21% and the EC50 is 91 nM.
Consider `O=C(C1COC1)N1CC2(CC[C@@H](N3CCC(c4ccc(F)cc4OC(F)F)CC3)C2)C1` [Example 6B, (R)-(6-(4-(2-(difluoromethoxy)-4-fluorophenyl)piperidin-1-yl)-2-azaspiro[3.4]octan-2-yl)(oxetan-3-yl)methanone], for which, in experiment [1], the Emax turned out to be 90% and a half-maximal response (EC50) required 12 nM. Moreover, the Emax in experiment [2] came to 0%.
The corresponding values for `COCCOc1ccccc1C1CCN([C@@H]2CCC3(C2)CN(c2cccnn2)C3)CC1` [Example 5X, (R)-6-(4-(2-(2-methoxyethoxy)phenyl)piperidin-1-yl)-2-(pyridazin-3-yl)-2-azaspiro[3.4]octane] are 0%, more than 25000 nM and 0%.
In the case of `O=C(C1COC1)N1CC2(CC[C@@H](N3CCC(c4ccccc4OCCC(F)(F)F)CC3)C2)C1` [Example 7GG, (R)-oxetan-3-yl(6-(4-(2-(3,3,3-trifluoropropoxy)phenyl)piperidin-1-yl)-2-azaspiro[3.4]octan-2-yl)methanone], in experiment [1], the Emax was determined as 91% and the half-maximal effective concentration (EC50) is 39 nM. For the same molecule, in experiment [2], the Emax was found to be 9% and the concentration giving a half-maximal response (EC50) was determined as 724 nM.
In the case of `FC1(COc2ccccc2C2CCN([C@@H]3CCC4(C3)CN(c3nncs3)C4)CC2)COC1` [Example 1H, (R)-2-(6-(4-(2-((3-fluorooxetan-3-yl)methoxy)phenyl)piperidin-1-yl)-2-azaspiro[3.4]octan-2-yl)-1,3,4-thiadiazole], the Emax in experiment [1] was 88%; in experiment [2], 41%. Besides, the EC50 in experiment [1] stood at 48 nM; in experiment [2] it was 30 nM.

These data come from patent US12122761B2, “2-azaspiro[3.4]octane derivatives as M4 agonists” (NOVARTIS AG, priority 2019, dated 2024).
